# Measured values: patent EP4818168A1, “FUSED RING COMPOUND, PHARMACEUTICAL COMPOSITION THEREOF AND USE THEREOF” (priority 2023, dated 2025)
# pIC50: −log10 of the molar value. Like-named read-outs stand apart in the source and are kept apart here.
# Tests used:
# AURKA = target: T1, AURKA (Homo sapiens, UniProt O14965); type: cell-based; details: Jurkat cells, 24 h, Table 2
# T1 construct: endogenous in cells; host or cells: Jurkat cells
# T1 sequence (O14965 1-403): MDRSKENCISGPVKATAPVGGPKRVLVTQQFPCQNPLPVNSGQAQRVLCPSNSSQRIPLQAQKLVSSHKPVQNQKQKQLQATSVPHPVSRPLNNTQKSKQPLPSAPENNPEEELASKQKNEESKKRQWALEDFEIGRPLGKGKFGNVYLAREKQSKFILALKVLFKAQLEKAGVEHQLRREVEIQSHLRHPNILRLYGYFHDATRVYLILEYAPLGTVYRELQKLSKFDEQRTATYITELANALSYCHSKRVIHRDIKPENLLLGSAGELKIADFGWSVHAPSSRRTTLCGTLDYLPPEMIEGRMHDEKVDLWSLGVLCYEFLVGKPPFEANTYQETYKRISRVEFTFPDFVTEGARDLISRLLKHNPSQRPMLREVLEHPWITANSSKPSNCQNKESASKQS
# Description: WB is a classical biochemical experimental method used to detect the abundance of a target protein in a sample of cells or biological tissue. It relies on specific antigen-antibody binding to detect protein signals from the sample processed by gel electrophoresis: the protein specifically binds to a primary antibody at an epitope; the primary antibody is then conjugated with a secondary antibody to amplify the signal cascade; the signal is read out by chemiluminescent or fluorescent detection. The intracellular protein content is ultimately characterized by the intensity of the optical signals. […] The DC50 value can be calculated by curve fitting of the protein WB exposure signals.
# The experimental procedure is as follows: • 1. Seed Jurkat cells into a 12-well plate at 1×10^6 cells/500 µL/well. • 2. Mix the culture medium with the compound to a concentration that is twice the desired final concentration. […] Transfer the cell suspension to a centrifuge tube. Rinse the 12-well plate with PBS and then transfer the PBS from the plate to the same centrifuge tube. Centrifuge at 3000 rpm for 5 min at room temperature. Aspirate the supernatant using a vacuum pump. […] Lyse on ice for 20 min. • 4. Centrifuge the lysed sample at 13000 rpm for 20 min at 4°C. Mix the supernatant with 5× protein loading buffer. Boil at 100°C for 5 min and then cool. Store the denatured protein sample at -20°C. • 5. […] Run electrophoresis at 80 V for 20 min, and then at 120 V constant voltage for 60 min. • 6. Transfer the protein onto a nitrocellulose membrane in an ice bath at 250 mA constant current for 90 min. • 7. […] Incubate with a primary antibody overnight at 4°C. • 9. […] Incubate with a secondary antibody for 1-2 h at room temperature. • 10. […] Expose and image the membrane using a LICOR Odyssey DLx imager.
# H82 cells = assay: cells; type: cell-based
# Protocol: CellTiter-Glo (CTG) is a rapid cell viability test method based on ATP detection. […] Adenosine triphosphate (ATP) participates in various enzymatic reactions in organisms and is an indicator of living cell metabolism. Its content directly reflects the number of living cells and cell status. During the experiment, equal volume of CTG reagent is added to the cultured cells to measure the luminescence value. The chemiluminescent signal value is proportional to the amount of ATP, thus reflecting the number of viable cells. Therefore, cell viability can be obtained by detecting the ATP content. Compounds that affect cell viability will inhibit cell viability in a concentration-dependent manner, allowing a curve to be fitted to obtain the IC50 value.
# The experimental procedure is as follows: • 11. Place the cell suspension in a 15 mL centrifuge tube, centrifuge at 1000 rpm for 5 min at room temperature, discard the supernatant, and collect the cell pellet. • 12. Resuspend the cell pellet with preheated complete cell culture medium (RPMI1640+10%FBS+1%PS), and use a Countess® automated cell counter to detect cell viability and density. […] Transfer the compound solution to a 96-well plate seeded with cells (final concentration of DMSO 0.1%), and place in a cell incubator at 37°C, 5% CO2 for 6 days. • 15. […] Protect from light during the whole process. Perform optical signal readings using a SpectraMax i3x reader. • 16. Data analysis: Remaining activity (%) = 100% * (1 - ((LumDMSO - Lummedium) - Lumsample) / (LumDMSO - LumPBS/medium)). Use GraphPad Prism 9.0 software to draw an S-shaped dose-survival rate curve and calculate the IC50 value using a nonlinear regression model.
# [1] = Homo sapiens, NCI-H82, read-out: IC50 in H82 Cells
# [2] = Homo sapiens, NCI-H82, H82 cells, 4000 cells/well, CellTiter-Glo, read-out: IC50 in H82 Cells
Compound,Percentage of AURKA Degradation Induced by 100 nM Compound in Jurkat Cells (AURKA),Percentage of AURKA Degradation Induced by 1 µM Compound in Jurkat Cells (AURKA),pIC50 (H82 cells; [1]),"pIC50 (H82 cells; read-out: IC50 in H82 Cells, H82 cells, 4000 cells/well, CellTiter-Glo)",pIC50 (H82 cells; [2])
O=C1CCN(c2ccc(N3CCC4(CC3)CC(N3CCN(c5ccc(Nc6ncc7c(n6)-c6ccc(Cl)cc6C(c6c(F)cccc6F)=NC7)cc5)CC3)CO4)nc2)C(=O)N1 (racemic) [Compound A340],+++ (Degradation > 70%),+++ (Degradation > 70%),> 6.00,–,–
"O=C1CCN(c2ccc(N3CCOC4(CC(N5CCN(C67CC(Nc8ncc9c(n8)-c8ccc(Cl)cc8C(c8c(F)cccc8F)=NC9)(C6)C7)C(=O)C5)C4)C3)nc2)C(=O)N1 (single isomer, unassigned) [Compound A348]",+++ (Degradation > 70%),++ (30% < Degradation ≤ 70%),> 6.00,–,–
"O=C1CCN(c2ccc(N3CCOC4(CC(N5CCN(C67CC(Nc8ncc9c(n8)-c8ccc(Cl)cc8C(c8c(F)cccc8F)=NC9)(C6)C7)C(=O)C5)C4)C3)nc2)C(=O)N1 (single isomer, unassigned) [Compound A349]",++ (30% < Degradation ≤ 70%),++ (30% < Degradation ≤ 70%),–,> 6.00,–
O=C1CCN(c2ccc(N3CCC4(CC3)CC(NC(=O)c3ccc(Nc5ncc6c(n5)-c5ccc(Cl)cc5C(c5c(F)cccc5F)=NC6)cc3)C4)cc2F)C(=O)N1 [Compound A96],++ (30% < Degradation ≤ 70%),+++ (Degradation > 70%),–,–,> 6.00
O=C1CCN(c2cccc(N3CCN(CC#Cc4cccc(Nc5ncc6c(n5)-c5ccc(Cl)cc5C(c5c(F)cccc5F)=NC6)c4)CC3)c2)C(=O)N1 [Compound A98],–,–,> 6.00,–,–
O=C1CCN(c2cccc(C#CCN3CCn4c(cnc4-c4ccc(Nc5ncc6c(n5)-c5ccc(Cl)cc5C(c5c(F)cccc5F)=NC6)cc4)C3)c2)C(=O)N1 [Compound A145],–,–,–,–,> 6.00
Cc1c(N2CCN(CCc3cccc(Nc4ncc5c(n4)-c4ccc(Cl)cc4C(c4c(F)cccc4F)=NC5)c3)CC2)cncc1N1CCC(=O)NC1=O [Compound A162],++ (30% < Degradation ≤ 70%),++ (30% < Degradation ≤ 70%),–,–,–
Cc1c(N2CCC3(CC2)CN(Cc2cccc(Nc4ncc5c(n4)-c4ccc(Cl)cc4C(c4c(F)cccc4F)=NC5)c2)C3)cccc1N1CCC(=O)NC1=O [Compound A163],++ (30% < Degradation ≤ 70%),+ (Degradation ≤ 30%),–,–,–
O=C1CCN(c2cncc(N3CCN(C4CN(c5cccc(Nc6ncc7c(n6)-c6ccc(Cl)cc6C(c6c(F)cccc6F)=NC7)c5)C4)CC3)c2C(F)F)C(=O)N1 [Compound A193],+ (Degradation ≤ 30%),+ (Degradation ≤ 30%),–,–,–
O=C1CCN(c2cnc(N3CC(N4CCN(c5ccc(Nc6ncc7c(n6)-c6ccc(Cl)cc6C(c6c(F)cccc6F)=NC7)cc5)C(=O)C4)C3)s2)C(=O)N1 [Compound A201],++ (30% < Degradation ≤ 70%),++ (30% < Degradation ≤ 70%),–,–,–
O=C1CCN(c2ccc(N3CC4(C3)CN(C3CN(c5ccc(Nc6ncc7c(n6)-c6ccc(Cl)cc6C(c6c(F)cccc6F)=NC7)cc5)C3)C4)nc2)C(=O)N1 [Compound A204],+++ (Degradation > 70%),++ (30% < Degradation ≤ 70%),–,–,–
O=C1CCN(c2cncc(N3CCC(N4CC5(CN(c6cccc(Nc7ncc8c(n7)-c7ccc(Cl)cc7C(c7c(F)cccc7F)=NC8)c6)C5)C4)CC3)c2)C(=O)N1 [Compound A241],+++ (Degradation > 70%),++ (30% < Degradation ≤ 70%),–,–,–
O=C1CCN(c2ccc(N3CCN(CC4CN([C@H]5CC[C@H](Nc6ncc7c(n6)-c6ccc(Cl)cc6C(c6c(F)cccc6F)=NC7)CC5)C4)CC3)nc2)C(=O)N1 [Compound A246],+ (Degradation ≤ 30%),++ (30% < Degradation ≤ 70%),–,–,–
O=C1CCN(c2ccc(N3CCN(CC4CN([C@H]5CC[C@@H](Nc6ncc7c(n6)-c6ccc(Cl)cc6C(c6c(F)cccc6F)=NC7)CC5)C4)CC3)nc2)C(=O)N1 [Compound A247],+ (Degradation ≤ 30%),+ (Degradation ≤ 30%),–,–,–
CN(C)CCOc1ccc2c(c1)C(c1c(F)cccc1F)=NCc1cnc(Nc3ccc(N4CC(CN5CCN(c6ccc(N7CCC(=O)NC7=O)cn6)CC5)C4)cc3)nc1-2 [Compound A260],++ (30% < Degradation ≤ 70%),++ (30% < Degradation ≤ 70%),–,–,–
CP(C)(=O)c1ccc2c(c1)C(c1c(F)cccc1F)=NCc1cnc(Nc3ccc(N4CCN(C5CCN(c6ccc(N7CCC(=O)NC7=O)cn6)CC5)CC4)cc3)nc1-2 [Compound A266],++ (30% < Degradation ≤ 70%),++ (30% < Degradation ≤ 70%),–,–,–
O=C1CCN(c2ccc(N3CCC(F)(CN4CCN(C56CC(Nc7ncc8c(n7)-c7ccc(Cl)cc7C(c7nccs7)=NC8)(C5)C6)C(=O)C4)CC3)nc2)C(=O)N1 [Compound A278],++ (30% < Degradation ≤ 70%),+++ (Degradation > 70%),–,–,–
COc1cc(Nc2ncc3c(n2)-c2ccc(Cl)cc2C(c2c(F)cccc2F)=NC3)ccc1N1CC(F)(CN2CCN(c3ccc(N4CCC(=O)NC4=O)cn3)CC2)C1 [Compound A289],+++ (Degradation > 70%),+++ (Degradation > 70%),–,–,–
O=C1CCN(c2ccc(N3CCC(N4CCN(c5ccc(Nc6ncc7c(n6)-c6ccc(Cl)cc6C(c6c(F)cccc6F)=NC7)cc5)CC4=O)CC3)nc2)C(=O)N1 [Compound A295],+++ (Degradation > 70%),++ (30% < Degradation ≤ 70%),–,–,–
O=C1CCN(c2ccc(N3CCC(N4CCN(c5ccc(Nc6ncc7c(n6)-c6ccc(Cl)cc6C(C6CC6)=NC7)cc5)C(=O)C4)CC3)nc2)C(=O)N1 [Compound A328],++ (30% < Degradation ≤ 70%),++ (30% < Degradation ≤ 70%),–,–,–
